{"source": "patent US20080044405A1", "about": "“Noble metal complex-mediated immunosuppression” (President and Fellows of Harvard College, priority 2006, published 2008)", "key": {"DR1-HA": {"target": "DR1-HA (Homo sapiens, UniProt P01903+P01911, A100R/D57E/F55L/F60I/F76Y/I96L/L162R/M171V/P40L/Q125E/R42F/V115G/Y59C)", "assay": "activation of sodium aurothiomalate by hypochlorite, peptide release ELISA", "type": "binding", "settings": "pH 7.4, final compound 10 μM, oxidant 0-10 μM, overnight 37° C.", "experimental": "Activation of sodium aurothiomalate (sodium Au(I)-thiomalate, 8) by sodium hypochlorite (NaOCl). Sodium aurothiomalate (8; 300 μM) and a control, thiomalate (D,L-mercaptosuccinic acid, 9), were dissolved in PBS and incubated for 1 h at 20° C. with increasing concentrations of NaOCl. After 1 h, 5 μl of each reaction stock solution was added to DR1-HA-biotin (0.1 μM) in PBS (pH 7.4). The final concentration of compounds 8 and 9 was 10 μM. After incubation of the protein with added compound overnight at 37° C., the amount of biotinylated HA peptide that bound to DR1 was determined by chemiluminescent ELISA.\nActivation of sodium aurothiomalate (Au(I)-thiomalate, 8) by sodium hypochlorite (NaOCl). The concentration of sodium hypochlorite (NaOCl) solution was determined prior to each use by measuring the absorbance at 292 nm (ε292=350 M^−1cm^−1). Sodium aurothiomalate (8), 300 μM, was incubated for one hour at 20° C. in the presence of increasing concentrations of NaOCl (0 μM, 100 μM, 125 μM, 150 μM, and 300 μM) in PBS (pH 7.4). As a control, thiomalate (D,L-mercaptosuccinic acid, 9), 300 μM, was also treated with the identical concentrations of NaOCl. After one hour, 5 μL of each reaction stock solution was added to 145 μL of DR1-HA-biotin complex in PBS (pH 7.4). The final protein concentration was 0.1 μM and the final concentration of compounds 8 and 9 was 10 μM. Final concentrations of oxidant were 0, 3.33, 4.17, 5 and 10 μM. Each concentration of oxidant was tested in quadruplicate. After incubating overnight at 37° C., the amount of biotinylated HA peptide that remained bound to DR1 was determined using the chemiluminescent ELISA described above."}, "[1]": {"target": "DR1-CLIP (fluorescently labeled CLIP bound to HLA-DR1) (Homo sapiens, UniProt P01903+P01911, A100R/D57E/F55L/F60I/F76Y/I96L/L162R/M171V/P40L/Q125E/R42F/V115G/Y59C)", "assay": "fluorescence polarization screen of peptide release from DR1-CLIP (high-throughput and focused metal screen)", "type": "binding", "settings": "for ability to disrupt DR1-CLIP association, focused screen of metal complexes (FIG. 1a): 250 μM, ~20 h, 37° C., pH 5.0; for activity in high-throughput screen (peptide release by fluorescence polarization): 28,000 compounds screened, HLA-DM present, pH 5", "experimental": "To find small-molecule modulators of class II MHC-peptide interactions, we used a high-throughput, fluorescence polarization assay to screen 28,000 compounds and natural extracts. Each well of a microplate contained a fluorescently labeled class II-associated invariant chain peptide (CLIP) bound to human leukocyte antigen (HLA)-DR1, a class II MHC protein. In addition, HLA-DM, a peptide exchange catalyst required in vivo for efficient loading, was present. The assay was performed at pH 5 to simulate endosomal pH (Morris P et al. (1994) Nature 368:551-4; Weber D A et al. (1996) Science 274:618-20). Compounds were added to the plates by pin transfer and monitored peptide release by fluorescence polarization. The screen uncovered only two active compounds, cisplatin (1) and carboplatin (2), both platinum(II) complexes.\nFluorescence polarization (FP) based binding assay used for small molecule screening. A FP assay was developed in order to screen small-molecule libraries for chemicals that could modulate peptide binding by class II MHC proteins. The fluorescent DR1-CLIP-AlexaFluor488 (0.1 μM) was used for all FP studies. The concentration of DM used in the screening assay, and when included as a control, was 0.1 μM. Experiments were carried out in a final volume of 40 μl in black, 384-well assay plates (non-binding surface, Costar). The plate was sealed with an aluminum foil seal (Costar), placed in a sealed humidified container, and incubated at 37° C. The FP values for each experimental well were determined using a plate reader (Analyst, LJL Biosystems). A total of 27,937 compounds from several commercial sources were screened using this assay. This assay format was also used to screen several metal complexes and chloride salts as wells as for kinetic studies.\nFocused screen of metal complexes using the FP assay. Based on the results of the primary small molecule screen, a focused screen consisting of several metal complexes and chloride salts was performed using the fluorescence polarization assay. […]. These were tested in duplicate at a concentration of 250 μM. For the focused screen, DR1 (100 nM) bound to a Alexa-Fluor 488-labeled CLIP (af-CLIP) peptide was incubated with several metal complexes and salts (250 μM) for ˜20 h (37° C., pH 5.0), and then peptide release was measured by a fluorescence polarization assay. For comparison, the FP of labeled DR1-CLIP incubated with and without excess unlabeled HA peptide and the FP of af-CLIP peptide alone were also measured."}, "DR1-CLIP complex": {"target": "DR1-CLIP complex (Homo sapiens, UniProt P01903+P01911, A100R/D57E/F55L/F60I/F76Y/I96L/L162R/M171V/P40L/Q125E/R42F/V115G/Y59C)", "assay": "chemiluminescent ELISA of metal-induced peptide release, DR1-CLIP", "type": "binding", "settings": "for IC50: read-out: IC50 for CLIP release from DR1"}, "DR1-HA(306-318) complex": {"target": "DR1-HA(306-318) complex (Homo sapiens, UniProt P01903+P01911, A100R/D57E/F55L/F60I/F76Y/I96L/L162R/M171V/P40L/Q125E/R42F/V115G/Y59C)", "assay": "chemiluminescent ELISA of metal-induced peptide release, DR1-HA", "type": "binding", "settings": "read-out: IC50 for HA peptide release from DR1"}, "[2]": {"test_system": "HA peptide-loaded LG-2 cells presented to influenza-specific T cell hybridoma", "assay": "T cell activation assay (IL-2 release)", "type": "cell-based", "settings": "1-100 μM, APCs treated […], IL-2 ELISA (FIG. 4c)"}, "[3]": {"test_system": "peptide-class II MHC complex", "assay": "inhibition of peptide-class II MHC complex formation, cis versus trans", "type": "binding"}, "[4]": {"settings": "pH 5, overnight 37° C., without DM"}}, "note": "Several values for one entry are separate records, joined by “and”; a condition that tells them apart may be missing. Equal entries are not always repeated. Where two headings read alike, the source gives them in different places."}
{"compound": "O=C(O)CC(S)C(=O)O", "note": "(racemic) [thiomalate, D,L-mercaptosuccinic acid]", "values": [{"measurement": "peptide release from DR1-HA after treatment of compound with hypochlorite", "setting": "DR1-HA", "result": "does not have an effect"}, {"measurement": "peptide release from DR1-HA after treatment of compound with hypochlorite", "setting": "DR1-HA; listed as 9", "result": "did not"}]}
{"compound": "[Cl][Pd-2]([Cl])([Cl])[Cl].[K+].[K+]", "note": "[Compound K2PdCl4, K2PdCl4]", "values": [{"measurement": "ability to disrupt DR1-CLIP association, focused screen of metal complexes (FIG. 1a)", "setting": "[1]", "result": "active"}, {"measurement": "IC50", "setting": "DR1-CLIP complex; [4]", "result": "3480 ± 370", "unit": "nM"}]}
{"compound": "[Au+].[C-]#N.[C-]#N.[K+]", "note": "[K[Au^I(CN)2]]", "values": [{"measurement": "ability to disrupt DR1-CLIP association, focused screen of metal complexes (FIG. 1a)", "setting": "[1]", "result": "did not release peptide from DR1"}]}
{"compound": "[Cl][Ni][Cl]", "note": "[NiCl2]", "values": [{"measurement": "ability to disrupt DR1-CLIP association, focused screen of metal complexes (FIG. 1a)", "setting": "[1]", "result": "inactive"}, {"measurement": "activity in titration of DR1-CLIP complex (FIG. 1b)", "setting": "DR1-CLIP complex; pH 5", "result": "inactive"}]}
{"compound": "N.N.O=C([O-])C1(C(=O)[O-])CCC1.[Pt+2]", "note": "[carboplatin, diammine[1,1-cyclobutane-dicarboxylato(2-)-O,O′]—Pt^II]", "values": [{"measurement": "activity in high-throughput screen (peptide release by fluorescence polarization)", "setting": "[1]", "result": "active"}]}
{"compound": "N.N.[Cl][Pt][Cl]", "note": "[cisplatin, cis-diamminedichloroplatinum (II)]", "values": [{"measurement": "activity in high-throughput screen (peptide release by fluorescence polarization)", "setting": "[1]", "result": "active"}, {"measurement": "IC50", "setting": "DR1-CLIP complex; [4]", "result": "2660 ± 690", "unit": "nM"}, {"measurement": "IC50", "setting": "DR1-CLIP complex; pH 7.4", "result": "770 ± 30", "unit": "nM"}, {"measurement": "IC50", "setting": "DR1-HA(306-318) complex; pH 5", "result": "~4000 nM and 5490 nM"}, {"measurement": "IC50", "setting": "DR1-HA(306-318) complex; pH 7.4", "result": "~1000 nM and 1060 nM"}, {"measurement": "inhibition of T-cell activation by metal-pretreated antigen-presenting cells", "setting": "[2]", "result": "blocked"}, {"measurement": "inhibition of T-cell activation by metal-pretreated antigen-presenting cells", "setting": "[2]; listed as Cisplatin", "result": "more potent"}, {"measurement": "activity as inhibitor of peptide-class II MHC complex formation", "setting": "[3]", "result": "active"}]}
{"compound": "O=C([O-])CC([S-])C(=O)[O-].[Au+].[Na+].[Na+]", "note": "(stereo not drawn) [sodium Au(I)-thiomalate, sodium aurothiomalate]", "values": [{"measurement": "activity in titration of DR1-CLIP complex (FIG. 1b)", "setting": "DR1-CLIP complex; pH 5", "result": "did not release peptide from DR1"}, {"measurement": "activity in titration of DR1-CLIP complex (FIG. 1b)", "setting": "DR1-CLIP complex; pH 5, listed as sodium aurothiomalate", "result": "inactive"}, {"measurement": "peptide release from DR1-HA after treatment of compound with hypochlorite", "setting": "DR1-HA", "result": "causes peptide release from DR1"}, {"measurement": "peptide release from DR1-HA after treatment of compound with hypochlorite", "setting": "DR1-HA; listed as 8", "result": "caused peptide release"}]}
{"compound": "N.N.[Cl][Pt+2][Cl]", "note": "[transplatin]", "values": [{"measurement": "activity as inhibitor of peptide-class II MHC complex formation", "setting": "[3]", "result": "is not"}]}
